Each block holds one compound with its values, some of them ahead of it.
Tests used:
[1] = biological target: T1, M1R (Homo sapiens, UniProt P11229); assay: M1R-induced increase of THIK-1 channel current, whole cell patch clamp in HEK293T cells; assay type: cell-based; conditions: BAPTA 5 mM in pipette solution, n = 8
T1 construct: expressed in transfected cells; host or cells: HEK293T
T1 sequence (P11229 1-460): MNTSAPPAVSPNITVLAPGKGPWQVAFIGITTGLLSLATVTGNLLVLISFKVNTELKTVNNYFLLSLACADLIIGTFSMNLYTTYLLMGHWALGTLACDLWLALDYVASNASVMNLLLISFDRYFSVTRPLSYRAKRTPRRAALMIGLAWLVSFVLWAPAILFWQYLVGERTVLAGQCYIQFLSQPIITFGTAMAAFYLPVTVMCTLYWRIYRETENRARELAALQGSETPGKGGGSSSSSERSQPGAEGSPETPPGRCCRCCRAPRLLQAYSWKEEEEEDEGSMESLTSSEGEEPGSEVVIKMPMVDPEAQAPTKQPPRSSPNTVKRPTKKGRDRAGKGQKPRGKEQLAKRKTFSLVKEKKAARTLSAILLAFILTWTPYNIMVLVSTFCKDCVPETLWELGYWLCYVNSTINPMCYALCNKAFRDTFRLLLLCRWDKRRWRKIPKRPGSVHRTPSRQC
Excerpt: (§1) Coding region of mGu2 (M1-P840) was amplified by conventional PCR with designed primers and the resulting product was subcloned into pEYFP-N1 vector at the BglII and EcoRI sites. The cDNAs for mouse THIK-2 channel and dimeric THIK channels were subcloned into pcDNA3.1(-) vector. To increase the surface membrane expression of the THIK-2 channel, 29 residues (Ser2-Ser30) were removed (ΔN-THIK-2). […] Ci-VSP-IRES-GFP vector was kindly gifted by Dr. Y. Okamura (Osaka University, Osaka, Japan). HEK293T cells or CHO-K1 cells were seeded on glasses and transfected with the plasmid DNAs for THIK channels, receptors and a transfection marker of yellow fluorescent protein (YFP). Electrophysiological experiments were performed 24–72 h after the transfection. […] Pertussis toxin (PTX) was purchased from Wako (Osaka, Japan). […] All reagents were dissolved at high concentration and stored at -20 °C as the stock solutions. The stock reagent solution was diluted at concentrations for the electrophysiological experiments. PTX was solved in the culture medium (final concentration, 300 ng/mL) and cells were incubated in it for more than 16 h. U73122 or U73343 (final concentration, 2 μM each) was dissolved in Hanks’ Balanced Salt Solution (HBSS, Invitrogen, Carlsbad, CA, USA) supplemented with 1 mM Ca^2+ and 0.3 mM Mg^2+. Cells were incubated in HBSS with U73122 or U73343 for 10 min at room temperature before the whole cell current recording.
(§2) Composition of bath solution was (in mM) 140 NaCl, 4 KCl, 1 CaCl2, 0.3 MgCl2, 10 HEPES (pH 7.4 adjusted with NaOH). The pipette solution for whole cell patch clamp experiments contained (mM) 130 KCl, 5 Na2-ATP, 3 EGTA, 0.1 CaCl2, 10 HEPES, 4 MgCl2, (pH 7.3 adjusted with KOH). GTP (0.3 mM) was supplemented in the pipette solution. Once the whole cell configuration was established, the cell was held at -80mV and ramp pulses (-120mV to +40mV for 0.4 sec) were applied every 5 sec. Various concentrations of the agonists were applied using a fast perfusion system (VC77SP, Warner Instruments, Hamden, CT, USA). The PKC inhibitor chelerythrine was included in the pipette solution.
(§3) The amplitude of the THIK-1 channel current at 0 mV was measured from every trace induced by the ramp pulse protocol to minimize the fraction of non-selective cationic leak current. The current amplitude before the agonist application was set as the basal current amplitude (I0). The effects of GPCRs on the THIK-1 channel were evaluated as the ratio of the current amplitude after the agonist application to I0 (Iagonist/I0). The EC50 values were estimated by fitting the concentration response curve to a Hill equation (Origin2016; OriginLab, Northampton, MA, USA). […] The effects of A2aR on the Gi/o-R-induced current increase of the THIK-1 channel was estimated as follows. […] All data are shown as means and S.D. The statistical significance between two or more than two groups was estimated by unpaired Student’s t-test or by a one-way analysis of variance (ANOVA) followed by Tukey’s test, respectively. […] Values of p≤ 0.05 were considered as statistically significant (***:p≤0.001, **:0.001<p≤0.01, *:0.01<p≤0.05, n.s.:p>0.05).

[2] = test system: endogenously expressed channels in HEK293T cells; assay: Effect of receptor stimulation on the endogenous current in HEK293T cells without THIK-1; assay type: cell-based; conditions: HEK293T transfected with GABABR, no THIK-1
Excerpt: The amplitude of the current increase at the 15th trace (ΔI15th) after the application of GABA or oxo-M were normalized to that at the 5th traces (ΔI5th) with or without additional activation of A2aR (ΔI15th/ΔI5th).
The current density at 0 mV (I0) in HEK293T cell transfected with indicated receptors and the effects of the receptor stimulation are shown as Mean and S.D.

[3] = test system: intracellular cAMP (Gs signaling, A2aR); assay: Intracellular cAMP, FRET based cAMP indicator in HEK293T cells; assay type: cell-based; conditions: NECA 10 μM
Description: HEK293T cells were culture on the glass bottom dishes and transfected with cDNAs for FRET based cAMP indicators and A2aR. […] transfection, cells were incubated in bath solution containing (mM) 140 NaCl, 1 CaCl2, 4 KCl, 0.3 MgCl2, 10 HEPES (pH was adjusted to 7.4 with NaOH) and fluorescent signals were acquired as previously described. CFP was excited by 442 nm laser line and emitted light was passed through S470/30 and S535/30 filters (Chroma), respectively. The fluorescence images were then amplified by an image intensifier unit (C8600, Hamamatsu Photonics) and recorded every 5 s using a cooled CCD camera (Qimage Retiga 6000, Roper Scientific). A laser switching controller (Olympus) was operated by using MetaFluor imaging software (Universal Imaging). The fluorescent intensities of CFP and YFP upon the CFP excitation were measured from fluorescent cells and cell free background.
Time dependent changes of the FRET efficiency of the FRET based cAMP indicator (FFRET/FCFP) are shown. Black bars show the application of the reagents, which was carried out by perfusion of the chamber (0.2-0.3 mL bath volume) with bath solution (1 mL) containing the reagent. […] The decrease in FRET were thought to be caused by the activation of the endogenous A2aR (Fig. S2E). Symbols show mean and SD.

[4] = biological target: T2, M1R-YFP / ΔN-THIK-2 channel (Homo sapiens, UniProt P11229); assay: M1R-YFP-induced increase of ΔN-THIK-2 channel current in CHO-K1 cells; assay type: cell-based, mouse; conditions: oxo-M 10 μM
T2 construct: expressed in transfected cells; host or cells: CHO-K1
T2 sequence (P11229 1-460): T1 sequence (P11229 1-460)
Excerpt: as §1, with “Cells were incubated in HBSS with U73122 or U73343 for 10 min at room temperature before the whole cell current recording.” left out

[5] = biological target: T3, mGlu1 (Homo sapiens, UniProt Q13255); assay: mGlu1-induced increase of THIK-1 channel current, whole cell patch clamp in HEK293T cells; assay type: cell-based; conditions: 2 μM for 10 min; glutamate 1 mM
T3 construct: expressed in transfected cells; host or cells: HEK293T
T3 sequence (Q13255 19-1194): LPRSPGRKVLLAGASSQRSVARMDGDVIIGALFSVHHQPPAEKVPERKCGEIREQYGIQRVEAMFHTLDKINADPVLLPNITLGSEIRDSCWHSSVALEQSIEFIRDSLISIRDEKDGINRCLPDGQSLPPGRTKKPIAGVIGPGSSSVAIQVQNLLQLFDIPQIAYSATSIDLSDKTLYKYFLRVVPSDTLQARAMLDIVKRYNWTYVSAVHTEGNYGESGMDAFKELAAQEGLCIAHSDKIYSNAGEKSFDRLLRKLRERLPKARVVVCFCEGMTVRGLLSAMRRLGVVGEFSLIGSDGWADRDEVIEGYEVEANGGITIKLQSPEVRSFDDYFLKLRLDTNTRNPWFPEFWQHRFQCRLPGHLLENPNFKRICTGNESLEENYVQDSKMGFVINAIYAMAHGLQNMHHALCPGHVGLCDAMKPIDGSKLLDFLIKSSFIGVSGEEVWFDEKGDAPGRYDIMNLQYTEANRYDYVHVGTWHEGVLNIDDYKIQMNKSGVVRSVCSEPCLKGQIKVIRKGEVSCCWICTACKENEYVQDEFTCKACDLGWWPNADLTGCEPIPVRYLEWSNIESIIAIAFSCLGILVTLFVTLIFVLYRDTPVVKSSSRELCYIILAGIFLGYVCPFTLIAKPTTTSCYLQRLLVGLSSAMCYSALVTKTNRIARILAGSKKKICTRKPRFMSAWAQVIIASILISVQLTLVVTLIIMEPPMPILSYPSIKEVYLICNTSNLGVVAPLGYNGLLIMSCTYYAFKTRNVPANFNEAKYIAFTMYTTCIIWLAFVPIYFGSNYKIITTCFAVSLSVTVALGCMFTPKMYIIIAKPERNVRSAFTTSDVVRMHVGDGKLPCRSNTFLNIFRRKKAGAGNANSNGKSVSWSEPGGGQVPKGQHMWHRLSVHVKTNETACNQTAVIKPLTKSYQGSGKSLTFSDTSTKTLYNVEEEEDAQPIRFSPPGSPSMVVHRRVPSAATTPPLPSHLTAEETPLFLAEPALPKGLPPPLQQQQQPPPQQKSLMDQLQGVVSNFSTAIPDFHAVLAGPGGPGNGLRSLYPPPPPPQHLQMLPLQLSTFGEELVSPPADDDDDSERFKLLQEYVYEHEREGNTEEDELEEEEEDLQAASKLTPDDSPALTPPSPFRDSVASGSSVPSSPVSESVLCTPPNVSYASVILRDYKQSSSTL
Excerpt: as §1, with “PTX was solved in the culture medium (final concentration, 300 ng/mL) and cells were incubated in it for more than 16 h. U73122 or U73343 (final concentration, 2 μM each) was dissolved in Hanks’ Balanced Salt Solution (HBSS, Invitrogen, Carlsbad, CA, USA) supplemented with 1 mM Ca^2+ and 0.3 mM Mg^2+. Cells were incubated in HBSS with U73122 or U73343 for 10 min at room temperature before the whole cell current recording.” left out
The amplitude of the THIK-1 channel current at 0 mV was measured from every trace induced by the ramp pulse protocol to minimize the fraction of non-selective cationic leak current. […] The effects of GPCRs on the THIK-1 channel were evaluated as the ratio of the current amplitude after the agonist application to I0 (Iagonist/I0). […]

[6] = test system: THIK-1 channel; assay: Basal current (I0) density of THIK-1 channel at 0 mV in HEK293T cells; assay type: cell-based; conditions: 0 mV, before agonist
Excerpt: as §1, §2, §3

effect of the M1R activation (Iagonist/I0) [1]: 3.0 ± 1.0
SMILES: O=C(O)CN(CC(=O)O)c1ccccc1OCCOc1ccccc1N(CC(=O)O)CC(=O)O [BAPTA]

SMILES: NCCCC(=O)O [GABA]
Effect of agonist (Iagonist/I0) [2]: 1.03 ± 0.06

SMILES: CCNC(=O)[C@H]1O[C@@H](n2cnc3c(N)ncnc32)[C@H](O)[C@@H]1O [NECA, 5’-N-ethylcarboxamidoadenosine]
Gs signaling (cAMP indicator) ([3]; HEK293T transfected with heterologous A2aR): fully activated
intracellular cAMP ([3]; HEK293T without heterologous A2aR (endogenous A2aR), effect partial): increased the intracellular cAMP

effect of M1R-YFP on ΔN-THIK-2 channel after PLC reagent [4]: inhibited
effect of mGlu1 on THIK-1 current after PLC reagent [5]: inhibited
SMILES: COc1ccc2c(c1)CC[C@@H]1[C@@H]2CC[C@]2(C)[C@@H](NCCCCCCN3C(=O)C=CC3=O)CC[C@@H]12 [U73122]
Basal current (I0) density of THIK-1 channel ([6]; THIK-1 + M1R, PLC reagent 2 μM 10 min): 35.7 ± 34.7 (9)^n.s pA/pF
Basal current (I0) density of THIK-1 channel ([6]; THIK-1 + M3R, PLC reagent 2 μM 10 min): 99.2 ± 117.3 (7)^n.s pA/pF
Basal current (I0) density of THIK-1 channel ([6]; THIK-1 + mGlu1, PLC reagent 2 μM 10 min): 112.2 ± 121.4 (10)^n.s pA/pF
